# According to patent publication US7425557B2, “Inhibitors of glycogen synthase kinase 3” (Novartis Vaccines and Diagnostics, Inc., priority 1998, dated 2008):
# Target: human GSK3β (Homo sapiens, UniProt P49841)
# Assay: Screening for GSK3 inhibitory activity using a cell-free assay
# Type: biochemical
# Conditions: read-out: IC50 with respect to GSK3
# Procedure, shortened: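 Compounds in DMSO were tested against human GSK3β over a three-hour kinase reaction. Radiolabeled phosphate transferred to the peptide was captured on streptavidin plates after EDTA/ATP stop and quantified by scintillation counting. Signal was plotted versus compound concentration.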
# Chain of human GSK3β (P49841 whole entry): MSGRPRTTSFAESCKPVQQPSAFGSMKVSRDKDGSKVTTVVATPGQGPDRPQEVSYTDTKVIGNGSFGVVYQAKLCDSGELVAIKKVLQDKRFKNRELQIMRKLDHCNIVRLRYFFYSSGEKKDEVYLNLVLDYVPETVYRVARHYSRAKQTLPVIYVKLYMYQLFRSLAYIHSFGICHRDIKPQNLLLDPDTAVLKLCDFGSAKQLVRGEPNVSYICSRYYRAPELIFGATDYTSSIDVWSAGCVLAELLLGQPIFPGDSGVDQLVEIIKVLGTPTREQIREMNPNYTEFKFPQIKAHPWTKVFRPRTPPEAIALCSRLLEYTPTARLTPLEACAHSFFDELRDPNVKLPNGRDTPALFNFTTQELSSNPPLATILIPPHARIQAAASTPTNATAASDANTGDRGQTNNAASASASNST
row,SMILES,IC50 [µM]
1,O=C(NCc1cccc(F)c1)c1ccc(-c2ccnc(NCCNc3ccc([N+](=O)[O-])cn3)n2)cc1 [N-[(3-fluorophenyl)methyl]{4-[2-({2-[(5-nitro(2-pyridyl))amino]ethyl}amino)pyrimidin-4-yl]-phenyl}carboxamide],≤ 10
2,"COc1ccc(CNC(=O)c2ccc(-c3ccnc(NCCNc4ccc([N+](=O)[O-])cn4)n3)cc2)cc1OC [N-[(3,4-dimethoxyphenyl)methyl]{4-[2-({2-[(5-nitro(2-pyridyl))amino]ethyl}amino)pyrimidin-4-yl]phenyl}carboxamide]",≤ 10
3,CCOC(=O)c1cnc(NCCNc2ccc([N+](=O)[O-])cn2)nc1NCc1cccc(Br)c1 [ethyl 4-{[(3-bromophenyl)methyl]amino}-2-({2-[(5-nitro(2-pyridyl))amino]ethyl}amino)pyrimidine-5-carboxylate],≤ 10
4,CCOC(=O)c1cnc(NCCNc2ccc(C#N)cn2)nc1-c1ccc(C#N)cc1 [ethyl 2-({2-[(5-cyano(2-pyridyl))amino]ethyl}amino)-4-(4-cyanophenyl)pyrimidine-5-carboxylate],≤ 1
5,"COc1ccc(OC)c(CCNc2nccc(-c3cccnc3)n2)c1 [[2-(2,5-dimethoxyphenyl)ethyl](4-(3-pyridyl)pyrimidin-2-yl)amine]",≤ 10
6,O=C(NCc1cccc(Cl)c1)c1ccc(-c2ccnc(NCCNc3ccc([N+](=O)[O-])cn3)n2)cc1 [N-[(3-chlorophenyl)methyl]{4-[2-({2-[(5-nitro(2-pyridyl))amino]ethyl}amino)pyrimidin-4-yl]-phenyl}carboxamide],≤ 10
7,CCOC(=O)c1c(-c2ccncc2)nc(NCCNc2ccc([N+](=O)[O-])cn2)nc1-c1ccc(C(N)=O)cc1,≤ 1
8,CCOC(=O)c1c(-c2ccc(C#N)cc2)nc(NCCNc2ccc([N+](=O)[O-])cn2)nc1-c1ccc([N+](=O)[O-])cc1 [ethyl 4-(4-cyanophenyl)-2-({2-[(5-nitro(2-pyridyl))amino]ethyl}amino)-6-(4-nitrophenyl)pyrimidine-5-carboxylate],≤ 1
9,CNC(=O)c1cnc(NCCNc2ccc([N+](=O)[O-])cn2)nc1-c1ccc(C#N)cc1 [[4-(4-cyanophenyl)-2-({2-[(5-nitro(2-pyridyl))amino]ethyl}amino)-pyrimidin-5-yl]-N-methylcarboxamide],≤ 1
10,N#Cc1cnc(NCCNc2ccc([N+](=O)[O-])cn2)nc1-c1ccccc1 [2-({2-[(5-nitro(2-pyridyl))amino]ethyl}amino)-4-phenylpyrimidine-5-carbonitrile],≤ 1
11,"COc1ccc(OC)c(CCNc2nccc(-c3ccc(C(=O)NCc4cccc(Br)c4)cc3)n2)c1 [[4-(2-{[2-(2,5-dimethoxyphenyl)ethyl]amino}pyrimidin-4-yl)phenyl]-N-[(3-bromophenyl)methyl]carboxamide]",≤ 10
12,CCOC(=O)c1cnc(NCCNc2ccc(C(=O)N3CCOCC3)cn2)nc1-c1ccc(C#N)cc1 [ethyl 4-(4-cyanophenyl)-2-[(2-{[5-(morpholin-4-ylcarbonyl)(2-pyridyl)]amino}ethyl)amino]pyrimidine-5-carboxylate],≤ 10
13,"Nc1cnc(NCCNc2ccc([N+](=O)[O-])c(N)n2)nc1-c1ccc(Cl)cc1Cl [[5-amino-4-(2,4-dichlorophenyl)pyrimidin-2-yl]{2-[(6-amino-5-nitro(2-pyridyl))amino]ethyl}amine]",≤ 1
14,CCOC(=O)c1cnc(NCCc2ccccn2)nc1-c1ccco1 [ethyl 4-(2-furyl)-2-[(2-(2-pyridyl)ethyl)amino]pyrimidine-5-carboxylate],≤ 10
15,CC(=O)Nc1ccc(-c2ccnc(NCCNc3ccc([N+](=O)[O-])cn3)n2)cc1 [N-{4-[2-({2-[(5-nitro-2-pyridyl)amino]ethyl}amino)-pyrimidin-4-yl]phenyl}acetamide],≤ 10
16,O=C(NCc1ccccc1)c1ccc(-c2ccnc(NCCNc3ccc([N+](=O)[O-])cn3)n2)cc1 [{4-[2-({2-[(5-nitro(2-pyridyl))amino]ethyl}amino)pyrimidin-4-yl]phenyl}-N-benzylcarboxamide],≤ 10
17,"Cc1nccn1-c1cnc(NCCNc2ccc([N+](=O)[O-])cn2)nc1-c1ccc(Cl)cc1Cl [[4-(2,4-dichlorophenyl)-5-(2-methylimidazolyl)pyrimidin-2-yl]{2-[(5-nitro(2-pyridyl))amino]ethyl}amine]",≤ 1
18,COC(=O)c1cnc(NCCNc2ccc([N+](=O)[O-])cn2)nc1-c1ccc(C#N)cc1 [methyl 4-(4-cyanophenyl)-2-({2-[(5-nitro(2-pyridyl))amino]ethyl}amino)pyrimidine-5-carboxylate],≤ 1
19,Nc1nc(NCCNc2nccc(-c3ccc(C(=O)NCc4ccccc4)cc3)n2)ccc1[N+](=O)[O-] [{4-[2-({2-[(6-amino-5-nitro(2-pyridyl))amino]ethyl}amino)pyrimidin-4-yl]phenyl}-N-benzylcarboxamide],≤ 10
20,CCOC(=O)c1c(CC)nc(NCCNc2ccc(C(F)(F)F)cn2)nc1-c1ccc(C(N)=O)cc1 [ethyl 4-(4-carbamoylphenyl)-6-ethyl-2-[(2-{[5-(trifluoromethyl)(2-pyridyl)]amino}-ethyl)amino]pyrimidine-5-carboxylate],≤ 10

row,SMILES,IC50 [µM]
1,N#Cc1ccc(-c2nc(NCCNc3ccc([N+](=O)[O-])cn3)ncc2C(=O)NCCO)cc1 [[4-(4-cyanophenyl)-2-({2-[(5-nitro(2-pyridyl))amino]ethyl}amino)pyrimidin-5-yl]-N-(2-hydroxyethyl)carboxamide],≤ 1
2,"CCOC(=O)c1cnc(NCCNc2ccc([N+](=O)[O-])cn2)nc1-c1ccc(-n2cnnc2)cc1 [ethyl 2-({2-[(5-nitro(2-pyridyl))amino]ethyl}amino)-4-(4-(1,2,4-triazol-4-yl)phenyl)pyrimidine-5-carboxylate]",≤ 1
3,CCOC(=O)c1cnc(NCCNc2ccc([N+](=O)[O-])cn2)nc1-c1cnc2ccccc2c1 [ethyl 2-({2-[(5-nitro(2-pyridyl))amino]ethyl}amino)-4-(3-quinolyl)pyrimidine-5-carboxylate],≤ 10
4,CN(C)CCCOC(=O)c1cnc(NCCNc2ccc([N+](=O)[O-])cn2)nc1-c1ccc(C#N)cc1 [3-(dimethylamino)propyl 4-(4-cyanophenyl)-2-({2-[(5-nitro(2-pyridyl))amino]ethyl}amino)pyrimidine-5-carboxylate],≤ 1
5,O=C(NCc1ccc(F)cc1)c1ccc(-c2ccnc(NCCNc3ccc([N+](=O)[O-])cn3)n2)cc1 [N-[(4-fluorophenyl)methyl]{4-[2-({2-[(5-nitro(2-pyridyl))amino]ethyl}amino)pyrimidin-4-yl]phenyl}carboxamide],≤ 10
6,"O=[N+]([O-])c1ccc(NCCNc2nccc(NCc3cc(Cl)cc(Cl)c3)n2)nc1 [[(3,5-dichlorophenyl)methyl][2-({2-[(5-nitro(2-pyridyl))amino]ethyl}amino)pyrimidin-4-yl]amine]",≤ 10
7,Cc1cnc(CNc2nccc(-c3ccc(C(N)=O)cc3)n2)cn1 [4-(2-{[(5-methylpyrazin-2-yl)methyl]amino}pyrimidin-4-yl)benzamide],≤ 10
8,N#Cc1ccc(NCCNc2ncc(-c3ncc[nH]3)c(-c3ccc(F)cc3Cl)n2)nc1 [6-[(2-{[4-(2-chloro-4-fluorophenyl)-5-imidazol-2-ylpyrimidin-2-yl]amino}ethyl)amino]pyridine-3-carbonitrile],≤ 1
9,O=S(=O)(NCc1ccccc1)c1ccc(-c2ccnc(NCCNc3ccccn3)n2)cc1 [benzyl{[4-(2-{[2-(2-pyridylamino)ethyl]-amino}pyrimidin-4-yl)phenyl]sulfonyl}amine],≤ 10
10,N#Cc1cccc(-c2ccnc(NCCNc3ccc([N+](=O)[O-])cn3)n2)c1 [3-[2-({2-[(5-nitro-2-pyridyl)amino]ethyl}amino)pyrimidin-4-yl]benzenecarbonitrile],≤ 10
11,CS(=O)(=O)c1cnc(NCCNc2ccc([N+](=O)[O-])cn2)nc1-c1ccc(C#N)cc1 [4-[5-(methylsulfonyl)-2-({2-[(5-nitro(2-pyridyl))amino]ethyl}amino)pyrimidin-4-yl]benzenecarbonitrile],≤ 1
12,CN(C)CCCCOC(=O)c1cnc(NCCNc2ccc([N+](=O)[O-])cn2)nc1-c1ccc(C#N)cc1,≤ 1
13,"Nc1nc(NCCNc2ncc(N3CCOCC3)c(-c3ccc(Cl)cc3Cl)n2)ccc1[N+](=O)[O-] [{2-[(6-amino-5-nitro(2-pyridyl))amino]ethyl}[4-(2,4-dichlorophenyl)-5-morpholin-4-yl-pyrimidin-2-yl]amine]",≤ 1
14,N#Cc1cccc(-c2nc(NCCNc3ccc([N+](=O)[O-])cn3)nc(-c3ccc([N+](=O)[O-])cc3)c2C(=O)O)c1 [4-(3-cyanophenyl)-2-({2-[(5-nitro(2-pyridyl))amino]ethyl}amino)-6-(4-nitrophenyl)pyrimidine-5-carboxylic acid],≤ 10
15,NC(=O)c1ccc(-c2ccnc(NCc3cccc(-c4cccc(N)c4)c3)n2)cc1 [4-[2-({[3-(3-aminophenyl)phenyl]methyl}amino)pyrimidin-4-yl]benzamide],≤ 10
16,N#Cc1ccc(NCCNc2ncc(-n3cc(Cl)ccc3=O)c(-c3ccc(Cl)cc3Cl)n2)nc1,≤ 1
17,CCOC(=O)c1cnc(NCCNc2ccccn2)nc1-c1cccc([N+](=O)[O-])c1 [ethyl 4-(3-nitrophenyl)-2-{[2-(2-pyridylamino)ethyl]amino}pyrimidine-5-carboxylate],≤ 10
18,N#Cc1ccc(-c2nc(NCCNc3ccc([N+](=O)[O-])cn3)nc(-c3ccc([N+](=O)[O-])cc3)c2C(=O)O)cc1 [4-(4-cyanophenyl)-2-({2-[(5-nitro(2-pyridyl))-amino]ethyl}amino)-6-(4-nitrophenyl)pyrimidine-5-carboxylic acid],≤ 1
19,"O=C(O)c1c(-c2ccc([N+](=O)[O-])cc2)nc(NCCNc2ccc([N+](=O)[O-])cn2)nc1-c1ccc([N+](=O)[O-])cc1 [4,6-bis(4-nitrophenyl)-2-({2-[(5-nitro(2-pyridyl))amino]ethyl}amino)pyrimidine-5-carboxylic acid]",≤ 10
